From patent US10669289B2, “Boronic acid derivatives” (MERCK PATENT GMBH, priority 2014, dated 2020)

Experiments:
[1] = target: human constitutive proteasome (Beta5) (Homo sapiens (Human), UniProt P28074); assay: Determination of Beta5 activity (fluorescence intensity assay, Suc-LLVY-AMC); type: biochemical
Summary of the method: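 Purified human constitutive proteasome (1.25 nM) preincubated with compounds (30 μM–15 pM) for 20 min (default) or 120 min at 25 °C in 50 mM Tris pH 7.4, 0.03% SDS, 1 mM EDTA, 1% DMSO. Suc-LLVY-AMC substrate at 40 μM, 60 min at 37 °C. Fluorescence read at ex 350/em 450 nm.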

[2] = target: human immuno proteasome (LMP7) (Homo sapiens (Human), UniProt P28062); assay: Determination of LMP7 activity (fluorescence intensity assay, Suc-LLVY-AMC); type: biochemical
Summary of the method: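 Fluorogenic Suc-LLVY-AMC cleavage (40 μM substrate, 60 min, 37° C., ex 350/em 450 nm) measured after 0.25 nM human immunoproteasome was exposed to compound at 30 μM–15 pM. Preincubation was 20 min by default or 120 min (long) at 25° C., in Tris pH 7.4 with 0.03% SDS, 1 mM EDTA and 1% DMSO.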

[3] = LMP7 versus Beta5, long incubation (120 min)

IC50 ([1]; long incubation (120 min)) [nM] | Selectivity LMP7 vs Beta5 [2, 3] | IC50 ([2]; long incubation (120 min)) [nM] | IC50 ([1]; incubation for 20 minutes) [nM] | Selectivity LMP7 vs Beta5 ([2]; LMP7 versus Beta5, incubation for 20 minutes) | IC50 ([2]; incubation for 20 minutes) [nM] | Compound
500 to 5000 | +++++ (Selectivity ≥ 150) | < 50 | – | – | – | C=CC(=O)N(CC(=O)N[C@@H](Cc1cccs1)B(O)O)c1ccc(Br)cc1 [Compound No. 104, [(1R)-1-[[2-(4-bromo-N-prop-2-enoyl-anilino)acetyl]amino]-2-(2-thienyl)ethyl]boronic Acid]
> 5000 | +++++ (Selectivity ≥ 150) | < 50 | – | – | – | CCN(CC(=O)N[C@@H](Cc1ccc(C)cc1C)B(O)O)C(=O)/C=C/CN(C)C [Compound No. 105, [(1R)-1-[[2-[[(E)-4-(dimethylamino)but-2-enoyl]-ethyl-amino]-acetyl]amino]-2-(2,4-dimethylphenyl)ethyl]boronic Acid]

Further lines, the compound ahead of its results:

Compound | IC50 ([1]; long incubation (120 min)) [nM] | Selectivity LMP7 vs Beta5 [2, 3] | IC50 ([2]; long incubation (120 min)) [nM] | IC50 ([1]; incubation for 20 minutes) [nM] | Selectivity LMP7 vs Beta5 ([2]; LMP7 versus Beta5, incubation for 20 minutes) | IC50 ([2]; incubation for 20 minutes) [nM]
C=CC(=O)N(CC(=O)N[C@@H](Cc1ccsc1)B(O)O)c1cccc(C(=O)N(C)C)c1 [Compound No. 102, [(1R)-1-[[2-[3-(dimethylcarbamoyl)-N-prop-2-enoyl-anilino]acetyl]amino]-2-(3-thienyl)ethyl]boronic Acid] | 500 to 5000 | ++ (50 ≤ Selectivity < 70) | < 50 | – | – | –
C=CC(=O)N(CC(=O)N[C@@H](Cc1ccsc1)B(O)O)c1ccc(C(=O)N(C)C)cc1 [Compound No. 103, [(1R)-1-[[2-[4-(dimethylcarbamoyl)-N-prop-2-enoyl-anilino]acetyl]amino]-2-(3-thienyl)ethyl]boronic Acid] | 500 to 5000 | +++++ (Selectivity ≥ 150) | < 50 | – | – | –
[(1R)-1-[[2-[but-2-ynoyl(propyl)amino]acetyl]amino]-2-(2,4-dimethylphenyl)ethyl]boronic Acid [Compound No. 3] | – | – | – | > 5000 | +++ (70 ≤ 100) | 50 to 500
